{"source": "ChEMBL document CHEMBL1201862", "about": "“PubChem BioAssay data set” (2004)", "experiment_in_all_cases": "inhibition of tumour cell growth, NCI panel, 48 h", "key": {"Hs-578T": {"test_system": "Hs-578T"}, "BT-549": {"test_system": "BT-549"}, "HOP-18": {"test_system": "HOP-18"}, "SNB-78": {"test_system": "SNB-78"}, "DMS-114": {"test_system": "DMS-114"}, "LXFL 529": {"test_system": "LXFL 529"}, "KM-20L2": {"test_system": "KM-20L2"}, "XF498": {"test_system": "XF498"}, "RXF 631": {"test_system": "RXF 631"}}, "note": "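Compound exposure: 48 hours, 5 concentrations, 96-well plates. Here, GI50 denotes the concentration required for 50% inhibition of growth.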 Calls of active or inactive are those of the source. Cut-off read from the data, not from the text of the source: active = GI50 up to about 1.1 µM and inactive = higher."}
{"compound": "Clc1c2nc3ccccc3c-2[nH]c2ccccc12", "values": [{"measurement": "GI50", "setting": "Hs-578T", "result": "33.7 µM (inactive)"}, {"measurement": "GI50", "setting": "BT-549", "result": "64.1 µM (inactive)"}]}
{"compound": "COC(=O)c1c(C)c2c(c(C)c1O)OC(=O)c1c(C)cc(O)c(C=O)c1O2", "values": [{"measurement": "GI50", "setting": "Hs-578T", "result": "12.5 µM (inactive)"}, {"measurement": "GI50", "setting": "BT-549", "result": "> 100 µM (inactive)"}]}
{"compound": "Cc1cc(O)cc2c1O[C@@]1(C)CCC3[C@@]4(C)CC[C@H](O)C(C)(C)C4CC[C@@]3(C)[C@H]1C2", "note": "(some centres undefined)", "values": [{"measurement": "GI50", "setting": "HOP-18", "result": "14.7 µM (inactive)"}, {"measurement": "GI50", "setting": "SNB-78", "result": "5.98 µM (inactive)"}, {"measurement": "GI50", "setting": "DMS-114", "result": "5.09 µM (inactive)"}, {"measurement": "GI50", "setting": "LXFL 529", "result": "2.85 µM (inactive)"}]}
{"compound": "CC(=O)Nc1ccc(-c2nnc(SCC(=O)Nc3cccc(Cl)c3)o2)cc1", "values": [{"measurement": "GI50", "setting": "HOP-18", "result": "12.6 µM (inactive)"}, {"measurement": "GI50", "setting": "SNB-78", "result": "> 100 µM (inactive)"}, {"measurement": "GI50", "setting": "DMS-114", "result": "1.36 µM (inactive)"}, {"measurement": "GI50", "setting": "KM-20L2", "result": "15.3 µM (inactive)"}, {"measurement": "GI50", "setting": "LXFL 529", "result": "10.9 µM (inactive)"}]}
{"compound": "O=C(CCC(=O)CC(O)(C(F)(F)F)C(F)(F)F)CC(O)(C(F)(F)F)C(F)(F)F", "values": [{"measurement": "GI50", "setting": "Hs-578T", "result": "29.4 µM (inactive)"}]}
{"compound": "OCC(O)C1OC2CC1Nc1ccccc1N2", "note": "(centres undefined)", "values": [{"measurement": "GI50", "setting": "Hs-578T", "result": "> 100 µM (inactive)"}]}
{"compound": "CN1CCN(C2CC(=O)c3c(Cl)sc(Cl)c32)CC1", "note": "(centres undefined)", "values": [{"measurement": "GI50", "setting": "BT-549", "result": "20.3 µM (inactive)"}]}
{"compound": "COc1ccc(Cc2n[nH]c(Nc3ccc(Br)cc3)nc2=O)cc1OC", "values": [{"measurement": "GI50", "setting": "Hs-578T", "result": "35 µM (inactive)"}, {"measurement": "GI50", "setting": "BT-549", "result": "27 µM (inactive)"}]}
{"compound": "O=C1Nc2cccc(Cl)c2/C1=C\\c1c(Cl)nc2sccn12", "values": [{"measurement": "GI50", "setting": "Hs-578T", "result": "21.9 µM (inactive)"}, {"measurement": "GI50", "setting": "BT-549", "result": "28.8 µM (inactive)"}]}
{"compound": "O=C1C=CC(=O)c2c1ccc1c3ccccc3n(Cc3ccc([N+](=O)[O-])cc3)c21", "values": [{"measurement": "GI50", "setting": "BT-549", "result": "> 100 µM (inactive)"}]}
{"compound": "COc1ccc(CC2OC3(CCCCC3)CC3CCCCN32)cc1", "note": "(centres undefined)", "values": [{"measurement": "GI50", "setting": "Hs-578T", "result": "36.7 µM (inactive)"}, {"measurement": "GI50", "setting": "BT-549", "result": "> 100 µM (inactive)"}]}
{"compound": "CS(=O)(=O)OC1CN2CCC1CC2", "note": "(centres undefined)", "values": [{"measurement": "GI50", "setting": "Hs-578T", "result": "> 100 µM (inactive)"}, {"measurement": "GI50", "setting": "BT-549", "result": "> 100 µM (inactive)"}]}
{"compound": "COC(=O)CC1C(=O)OCc2c1cc1n(c2=O)Cc2c-1nc1ccccc1c2OC", "note": "(centres undefined)", "values": [{"measurement": "GI50", "setting": "HOP-18", "result": "64.7 µM (inactive)"}, {"measurement": "GI50", "setting": "DMS-114", "result": "34.3 µM (inactive)"}, {"measurement": "GI50", "setting": "XF498", "result": "> 100 µM (inactive)"}, {"measurement": "GI50", "setting": "KM-20L2", "result": "> 100 µM (inactive)"}, {"measurement": "GI50", "setting": "LXFL 529", "result": "> 100 µM (inactive)"}]}
{"compound": "CC(=O)NNc1nc(C)c(C(=O)NNC(=O)C(=O)Nc2c(C)cccc2C)s1", "values": [{"measurement": "GI50", "setting": "HOP-18", "result": "29.2 µM (inactive)"}, {"measurement": "GI50", "setting": "SNB-78", "result": "36.1 µM (inactive)"}, {"measurement": "GI50", "setting": "KM-20L2", "result": "35.2 µM (inactive)"}, {"measurement": "GI50", "setting": "LXFL 529", "result": "41.8 µM (inactive)"}, {"measurement": "GI50", "setting": "RXF 631", "result": "26.2 µM (inactive)"}]}
{"compound": "CN(C)C(=S)/N=c1\\ss/c(=N\\C(=S)N(C)C)n1Cc1ccco1", "values": [{"measurement": "GI50", "setting": "HOP-18", "result": "> 100 µM (inactive)"}, {"measurement": "GI50", "setting": "SNB-78", "result": "> 100 µM (inactive)"}, {"measurement": "GI50", "setting": "DMS-114", "result": "> 100 µM (inactive)"}, {"measurement": "GI50", "setting": "KM-20L2", "result": "> 100 µM (inactive)"}, {"measurement": "GI50", "setting": "LXFL 529", "result": "> 100 µM (inactive)"}]}
{"compound": "Cc1ccc(-c2cn3c(nc4ccccc43)c(/C=C/c3ccco3)n2)cc1", "values": [{"measurement": "GI50", "setting": "Hs-578T", "result": "31.9 µM (inactive)"}, {"measurement": "GI50", "setting": "BT-549", "result": "> 100 µM (inactive)"}]}
{"compound": "COC(=O)/C=C\\C(C#N)(C#N)/N=C/c1cccc(OC)c1", "values": [{"measurement": "GI50", "setting": "Hs-578T", "result": "18.1 µM (inactive)"}, {"measurement": "GI50", "setting": "BT-549", "result": "7.74 µM (inactive)"}]}
{"compound": "O=C1CC(O)C=C1Nc1ccc(Cl)cc1", "note": "(centres undefined)", "values": [{"measurement": "GI50", "setting": "HOP-18", "result": "29.4 µM (inactive)"}, {"measurement": "GI50", "setting": "SNB-78", "result": "39.6 µM (inactive)"}, {"measurement": "GI50", "setting": "DMS-114", "result": "26.4 µM (inactive)"}, {"measurement": "GI50", "setting": "KM-20L2", "result": "0.708 µM (active)"}, {"measurement": "GI50", "setting": "LXFL 529", "result": "6.76 µM (inactive)"}, {"measurement": "GI50", "setting": "RXF 631", "result": "31.4 µM (inactive)"}]}
{"compound": "CCOP(=O)(OCC)c1ccc(=O)[nH]c1-c1cccs1", "values": [{"measurement": "GI50", "setting": "Hs-578T", "result": "> 100 µM (inactive)"}, {"measurement": "GI50", "setting": "BT-549", "result": "> 100 µM (inactive)"}]}
{"compound": "c1ccc2c(c1)N=C(c1cccc3ccccc13)CC(c1cccc3ccccc13)S2", "note": "(centres undefined)", "values": [{"measurement": "GI50", "setting": "HOP-18", "result": "5.57 µM (inactive)"}, {"measurement": "GI50", "setting": "SNB-78", "result": "5.53 µM (inactive)"}, {"measurement": "GI50", "setting": "DMS-114", "result": "2.74 µM (inactive)"}, {"measurement": "GI50", "setting": "XF498", "result": "9.79 µM (inactive)"}, {"measurement": "GI50", "setting": "KM-20L2", "result": "3.24 µM (inactive)"}, {"measurement": "GI50", "setting": "LXFL 529", "result": "3.27 µM (inactive)"}]}
{"compound": "CCC(C)OC(=O)C1C2CCC(O2)C1C(=O)O", "note": "(centres undefined)", "values": [{"measurement": "GI50", "setting": "HOP-18", "result": "> 100 µM (inactive)"}, {"measurement": "GI50", "setting": "SNB-78", "result": "> 100 µM (inactive)"}, {"measurement": "GI50", "setting": "DMS-114", "result": "> 41.6 µM (inactive)"}, {"measurement": "GI50", "setting": "KM-20L2", "result": "> 44.9 µM (inactive)"}, {"measurement": "GI50", "setting": "LXFL 529", "result": "> 62.7 µM (inactive)"}]}
{"compound": "O=C(CC1(O)C(=O)Nc2ccccc21)c1ccncc1", "note": "(centres undefined)", "values": [{"measurement": "GI50", "setting": "SNB-78", "result": "> 100 µM (inactive)"}, {"measurement": "GI50", "setting": "DMS-114", "result": "> 100 µM (inactive)"}, {"measurement": "GI50", "setting": "KM-20L2", "result": "> 100 µM (inactive)"}, {"measurement": "GI50", "setting": "LXFL 529", "result": "> 100 µM (inactive)"}]}
{"compound": "Cc1ccc(C2NC(=N)NC3=C2CCOc2c3ccc3ccccc23)cc1", "note": "(centres undefined)", "values": [{"measurement": "GI50", "setting": "Hs-578T", "result": "20.5 µM (inactive)"}, {"measurement": "GI50", "setting": "BT-549", "result": "6.04 µM (inactive)"}]}
{"compound": "CC(=O)Oc1ccc2cc(Oc3ccccc3)c(=O)oc2c1", "values": [{"measurement": "GI50", "setting": "Hs-578T", "result": "> 100 µM (inactive)"}, {"measurement": "GI50", "setting": "BT-549", "result": "39.9 µM (inactive)"}]}
{"compound": "CCc1ccc2c(c1)/C(=C1/Nc3ccccc3/C1=N/O)C(=O)N2", "values": [{"measurement": "GI50", "setting": "Hs-578T", "result": "4.57 µM (inactive)"}, {"measurement": "GI50", "setting": "BT-549", "result": "8 µM (inactive)"}]}
{"compound": "CN(C)C1(N(C)C)Oc2c(c(=O)n(C)c(=O)n2C)C(c2ccc(Br)cc2)C1(F)F", "note": "(centres undefined)", "values": [{"measurement": "GI50", "setting": "BT-549", "result": "> 100 µM (inactive)"}]}
{"compound": "Cn1nc2ccc3nccc(N4CCN(CCO)CC4)c3c2n1", "values": [{"measurement": "GI50", "setting": "Hs-578T", "result": "> 100 µM (inactive)"}, {"measurement": "GI50", "setting": "BT-549", "result": "> 100 µM (inactive)"}]}
{"compound": "COc1c(-c2ccc(O)c(O)c2)oc2c(O)c(O)cc(O)c2c1=O", "values": [{"measurement": "GI50", "setting": "Hs-578T", "result": "49.5 µM (inactive)"}, {"measurement": "GI50", "setting": "BT-549", "result": "> 100 µM (inactive)"}]}
{"compound": "Cc1ccc(/C=N\\NC(=O)c2ccncc2)s1", "values": [{"measurement": "GI50", "setting": "Hs-578T", "result": "> 100 µM (inactive)"}, {"measurement": "GI50", "setting": "BT-549", "result": "> 100 µM (inactive)"}]}
{"compound": "CC1OC(n2cc(F)c(=O)[nH]c2=O)C(O[Si](C)(C)C(C)(C)C)C1O[Si](C)(C)C(C)(C)C", "note": "(centres undefined)", "values": [{"measurement": "GI50", "setting": "Hs-578T", "result": "14.3 µM (inactive)"}, {"measurement": "GI50", "setting": "BT-549", "result": "13.4 µM (inactive)"}]}
{"compound": "Cc1cc(C#N)c[n+](C)c1", "values": [{"measurement": "GI50", "setting": "Hs-578T", "result": "> 100 µM (inactive)"}, {"measurement": "GI50", "setting": "BT-549", "result": "> 100 µM (inactive)"}]}
